Reference: ChEMBL document CHEMBL5543167, “Design, Synthesis, and Biological Evaluation of Novel EGFR PROTACs Targeting C797S Mutation” (J Med Chem, 2024)

Key:
[1] = Antiproliferative activity against human HI975-TM cells harboring EGFR L858R/T790M/C797S mutant assessed as inhibition of cell growth incubated for 72 hrs by CCK-8 assay; assay type: functional, cell-based; details: H1975-TM
[2] = biological target: Protein cereblon/Epidermal growth factor receptor (Homo sapiens, UniProt P00533+Q96SW2, T790M/C797S/L858R); test: PROTAC activity at CRBN/EGFR L858R/T790M/C797S mutant in human H1975-TM cells assessed as induction of EGFR degradation incubated for 24 hrs by Western blot analysis; assay type: cell-based
[3] = test system: Protein cereblon/Epidermal growth factor receptor (Homo sapiens), P00533+Q96SW2 [L858R,T790M,C797S]; test: PROTAC activity at CRBN/EGFR L858R/T790M/C797S mutant in human H1975-TM cells assessed as induction of EGFR degradation by measuring maximal efficacy at 300 nM incubated for 24 hrs by Western blot analysis relative to control; assay type: cell-based
[4] = test system: Protein cereblon/Epidermal growth factor receptor (Homo sapiens), P00533+Q96SW2 [L858R,T790M,C797S]; test: PROTAC activity at CRBN/EGFR L858R/T790M/C797S mutant in human H1975-TM cells assessed as induction of EGFR degradation by measuring remaining activity at 100 nM incubated for 24 hrs by Western blot analysis (reference value: 100%); assay type: cell-based
[5] = biological target: Protein cereblon/Epidermal growth factor receptor (Homo sapiens, UniProt P00533+Q96SW2, T790M/L858R); test: PROTAC activity at CRBN/EGFR L858R/T790M double mutant in human NCI-H1975 cells assessed as induction of EGFR degradation; assay type: cell-based
[6] = biological target: von Hippel-Lindau disease tumor suppressor/Epidermal growth factor receptor (Homo sapiens, UniProt P00533+P40337, L858R); test: PROTAC activity at VHL/EGFR L858R mutant in human NCI-H3255 cells assessed as induction of EGFR degradation incubated for 24 hrs by immunoblotting analysis; assay type: cell-based
PC-9 = test: Antiproliferative activity against human PC-9 cells harboring EGFR exon 19 deletion mutant assessed as inhibition of cell proliferation incubated for 72 hrs by CCK8 assay; assay type: functional, cell-based; details: PC-9, 72 h
A549 = test: Antiproliferative activity against human A549 cells harboring wildtype EGFR assessed as inhibition of cell proliferation incubated for 72 hrs by CCK8 assay; assay type: functional, cell-based; details: A549, 72 h
[7] = Antiproliferative activity against human PC-9-TM cells harboring EGFR exon 19 deletion/T790M/[…] mutant assessed as inhibition of cell proliferation incubated for 72 hrs by CCK8 assay; assay type: functional, cell-based
NCI-H1975 = test: Antiproliferative activity against human NCI-H1975 cells harboring EGFR L858R/T790M mutant assessed as inhibition of cell proliferation incubated for 72 hrs by CCK8 assay; assay type: functional, cell-based; details: NCI-H1975, 72 h
[8] = biological target: Epidermal growth factor receptor (Homo sapiens, UniProt P00533, C797S/L858R/T790M); test: Binding affinity to EGFR L858R/T790M/C797S mutant (unknown origin) assessed as dissociation constant incubated for 10 mins under dark condition by MST analysis
[9] = test system: Protein cereblon/Epidermal growth factor receptor (Homo sapiens), P00533+Q96SW2 [L858R,T790M,C797S]; test: Induction of EGFR L858R/T790M/C797S mutant in human H1975-TM cells assessed as remaining activity at 1 uM incubated for 6 hrs by Western blot analysis (reference value: 100%); assay type: cell-based

Protein cereblon/Epidermal growth factor receptor (Homo sapiens, UniProt P00533+Q96SW2, T790M/C797S/L858R), sequence (P00533 25-1210 T790M/C797S/L858R limits assumed, stated change not applied): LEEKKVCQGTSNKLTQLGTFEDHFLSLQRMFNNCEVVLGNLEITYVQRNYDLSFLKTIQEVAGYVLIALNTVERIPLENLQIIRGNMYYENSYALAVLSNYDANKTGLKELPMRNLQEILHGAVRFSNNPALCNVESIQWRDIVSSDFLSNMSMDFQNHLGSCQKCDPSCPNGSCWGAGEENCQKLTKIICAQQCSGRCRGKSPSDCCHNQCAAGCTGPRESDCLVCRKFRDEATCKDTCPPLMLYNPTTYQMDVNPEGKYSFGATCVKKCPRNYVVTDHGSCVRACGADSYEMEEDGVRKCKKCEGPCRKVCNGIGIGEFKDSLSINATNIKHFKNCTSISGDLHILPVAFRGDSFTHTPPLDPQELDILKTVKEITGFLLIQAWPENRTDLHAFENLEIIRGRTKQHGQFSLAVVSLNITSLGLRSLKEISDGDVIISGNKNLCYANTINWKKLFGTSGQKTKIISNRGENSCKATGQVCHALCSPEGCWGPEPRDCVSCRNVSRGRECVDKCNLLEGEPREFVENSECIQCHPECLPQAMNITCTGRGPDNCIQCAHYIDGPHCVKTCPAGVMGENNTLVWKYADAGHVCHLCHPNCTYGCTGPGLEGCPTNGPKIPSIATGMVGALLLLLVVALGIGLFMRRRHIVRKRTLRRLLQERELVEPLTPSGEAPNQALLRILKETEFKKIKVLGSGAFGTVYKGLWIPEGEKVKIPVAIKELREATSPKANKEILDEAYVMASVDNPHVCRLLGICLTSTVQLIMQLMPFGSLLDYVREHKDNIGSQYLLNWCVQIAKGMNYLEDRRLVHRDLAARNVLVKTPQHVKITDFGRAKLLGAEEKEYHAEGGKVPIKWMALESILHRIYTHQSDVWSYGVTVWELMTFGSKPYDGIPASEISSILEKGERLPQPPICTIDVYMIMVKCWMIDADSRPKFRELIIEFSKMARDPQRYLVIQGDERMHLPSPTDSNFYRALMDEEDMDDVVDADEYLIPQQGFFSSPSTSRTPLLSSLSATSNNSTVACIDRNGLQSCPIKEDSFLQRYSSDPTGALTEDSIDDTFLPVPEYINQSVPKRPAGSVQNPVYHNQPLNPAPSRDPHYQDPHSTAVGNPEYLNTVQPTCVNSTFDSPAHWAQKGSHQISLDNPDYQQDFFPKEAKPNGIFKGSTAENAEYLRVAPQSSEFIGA
Protein cereblon/Epidermal growth factor receptor (Homo sapiens, UniProt P00533+Q96SW2, T790M/C797S/L858R), sequence (Q96SW2 whole entry, stated change not applied): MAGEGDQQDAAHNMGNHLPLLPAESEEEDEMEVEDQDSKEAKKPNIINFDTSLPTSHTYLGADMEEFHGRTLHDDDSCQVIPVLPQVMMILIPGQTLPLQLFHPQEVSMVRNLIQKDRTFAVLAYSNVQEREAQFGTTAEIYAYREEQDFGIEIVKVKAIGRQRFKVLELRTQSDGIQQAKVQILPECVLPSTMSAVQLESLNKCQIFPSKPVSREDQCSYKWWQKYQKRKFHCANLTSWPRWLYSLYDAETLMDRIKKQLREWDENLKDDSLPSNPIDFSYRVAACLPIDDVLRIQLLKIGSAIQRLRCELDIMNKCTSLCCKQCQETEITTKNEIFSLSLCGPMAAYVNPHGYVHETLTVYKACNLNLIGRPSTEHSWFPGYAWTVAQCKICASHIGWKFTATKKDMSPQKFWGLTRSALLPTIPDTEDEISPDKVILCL
von Hippel-Lindau disease tumor suppressor/Epidermal growth factor receptor, sequence (P00533 25-1210 L858R limits assumed, stated change not applied): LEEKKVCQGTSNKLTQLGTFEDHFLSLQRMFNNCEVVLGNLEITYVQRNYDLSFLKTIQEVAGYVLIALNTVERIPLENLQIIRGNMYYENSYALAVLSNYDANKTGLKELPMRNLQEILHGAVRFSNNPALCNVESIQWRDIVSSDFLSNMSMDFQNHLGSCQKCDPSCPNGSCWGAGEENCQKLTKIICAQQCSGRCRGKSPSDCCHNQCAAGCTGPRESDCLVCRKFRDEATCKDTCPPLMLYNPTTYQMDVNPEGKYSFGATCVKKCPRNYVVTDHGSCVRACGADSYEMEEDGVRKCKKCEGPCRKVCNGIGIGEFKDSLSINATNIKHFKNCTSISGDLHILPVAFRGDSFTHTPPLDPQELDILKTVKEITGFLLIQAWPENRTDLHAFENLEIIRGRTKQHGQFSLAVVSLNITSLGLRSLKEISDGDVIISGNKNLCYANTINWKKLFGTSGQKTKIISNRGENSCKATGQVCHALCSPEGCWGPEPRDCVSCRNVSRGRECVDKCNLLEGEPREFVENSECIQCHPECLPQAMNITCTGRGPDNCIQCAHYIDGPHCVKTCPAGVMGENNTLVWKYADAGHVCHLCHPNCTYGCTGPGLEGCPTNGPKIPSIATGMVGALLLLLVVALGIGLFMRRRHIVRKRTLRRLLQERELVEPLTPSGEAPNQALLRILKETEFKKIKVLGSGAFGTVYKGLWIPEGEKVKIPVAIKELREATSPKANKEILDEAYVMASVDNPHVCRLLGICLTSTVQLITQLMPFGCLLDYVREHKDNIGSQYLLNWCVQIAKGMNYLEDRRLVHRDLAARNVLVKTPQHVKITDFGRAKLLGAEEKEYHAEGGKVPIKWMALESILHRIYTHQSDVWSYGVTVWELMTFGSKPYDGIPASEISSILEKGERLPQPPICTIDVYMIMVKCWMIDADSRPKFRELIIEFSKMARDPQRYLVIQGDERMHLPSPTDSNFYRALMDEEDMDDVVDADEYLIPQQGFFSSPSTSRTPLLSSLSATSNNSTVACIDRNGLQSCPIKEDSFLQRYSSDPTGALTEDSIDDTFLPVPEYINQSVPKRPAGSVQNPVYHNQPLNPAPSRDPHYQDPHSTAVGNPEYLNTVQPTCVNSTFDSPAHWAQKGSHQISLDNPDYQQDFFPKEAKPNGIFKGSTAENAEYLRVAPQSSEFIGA
von Hippel-Lindau disease tumor suppressor/Epidermal growth factor receptor, sequence (P40337 whole entry, stated change not applied): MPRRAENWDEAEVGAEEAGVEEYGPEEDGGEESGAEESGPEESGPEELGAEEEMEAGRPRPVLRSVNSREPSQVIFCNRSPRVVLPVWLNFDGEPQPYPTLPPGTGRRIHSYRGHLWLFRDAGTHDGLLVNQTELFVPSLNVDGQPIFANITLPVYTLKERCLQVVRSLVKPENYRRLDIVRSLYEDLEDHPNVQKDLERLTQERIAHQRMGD
Protein cereblon/Epidermal growth factor receptor (Homo sapiens, UniProt P00533+Q96SW2, T790M/L858R), sequence (P00533 25-1210 T790M/L858R limits assumed, stated change not applied): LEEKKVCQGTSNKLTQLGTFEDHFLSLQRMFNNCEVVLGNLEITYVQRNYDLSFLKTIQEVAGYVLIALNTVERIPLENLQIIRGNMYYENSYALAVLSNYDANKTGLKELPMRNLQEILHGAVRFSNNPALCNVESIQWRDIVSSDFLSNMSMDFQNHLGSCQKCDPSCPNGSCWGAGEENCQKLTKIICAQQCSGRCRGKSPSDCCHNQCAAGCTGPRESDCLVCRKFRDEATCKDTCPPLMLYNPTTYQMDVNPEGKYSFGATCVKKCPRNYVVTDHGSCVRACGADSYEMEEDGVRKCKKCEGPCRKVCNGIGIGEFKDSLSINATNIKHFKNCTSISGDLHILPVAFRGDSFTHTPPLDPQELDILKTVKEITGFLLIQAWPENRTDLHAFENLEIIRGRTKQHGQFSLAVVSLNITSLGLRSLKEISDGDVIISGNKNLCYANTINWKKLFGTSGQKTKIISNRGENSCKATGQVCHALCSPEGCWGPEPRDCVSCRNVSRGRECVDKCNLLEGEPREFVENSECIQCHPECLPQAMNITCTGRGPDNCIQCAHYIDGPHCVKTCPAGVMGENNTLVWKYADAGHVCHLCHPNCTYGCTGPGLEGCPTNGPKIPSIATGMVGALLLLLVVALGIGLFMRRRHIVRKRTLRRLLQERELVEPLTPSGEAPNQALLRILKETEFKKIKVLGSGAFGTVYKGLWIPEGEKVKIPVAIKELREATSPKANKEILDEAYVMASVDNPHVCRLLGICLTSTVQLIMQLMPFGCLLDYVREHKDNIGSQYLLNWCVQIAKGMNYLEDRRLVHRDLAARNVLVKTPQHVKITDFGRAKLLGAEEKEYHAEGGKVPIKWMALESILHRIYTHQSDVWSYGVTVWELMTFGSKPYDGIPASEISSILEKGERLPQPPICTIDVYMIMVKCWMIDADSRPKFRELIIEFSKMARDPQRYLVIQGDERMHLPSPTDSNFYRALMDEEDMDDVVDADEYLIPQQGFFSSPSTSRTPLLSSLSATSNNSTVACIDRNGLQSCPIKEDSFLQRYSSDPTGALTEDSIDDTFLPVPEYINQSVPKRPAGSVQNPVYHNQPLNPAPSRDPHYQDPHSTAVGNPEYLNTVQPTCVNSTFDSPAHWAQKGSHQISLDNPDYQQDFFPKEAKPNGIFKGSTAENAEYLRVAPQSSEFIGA
Protein cereblon/Epidermal growth factor receptor (Homo sapiens, UniProt P00533+Q96SW2, T790M/L858R), sequence (Q96SW2 whole entry, stated change not applied): as the sequence (Q96SW2 whole entry, stated change not applied) above

| SMILES | IC50 [1] [nM] | DC50 [2] [nM] | Emax [3] [%] | also measured |
| --- | --- | --- | --- | --- |
| CCS(=O)(=O)n1cc(-c2nc(Nc3ccc4c(ccn4CCN(C)C)c3)ncc2C(F)(F)F)c2ccccc21 | 16.3 | – | – | – |
| CCS(=O)(=O)n1cc(-c2nc(Nc3ccc(N4CCN(CC(=O)Nc5cccc6c5CN(C5CCC(=O)NC5=O)C6=O)CC4)cc3)ncc2C(F)(F)F)c2ccccc21 (stereo not drawn) | 88.7 | 30.1 | 89.3 | – |
| CCS(=O)(=O)n1cc(-c2nc(Nc3ccc(N4CCN(CCC(=O)Nc5cccc6c5CN(C5CCC(=O)NC5=O)C6=O)CC4)cc3)ncc2C(F)(F)F)c2ccccc21 (stereo not drawn) | 59.9 | 26.1 | 94.7 | – |
| CCS(=O)(=O)n1cc(-c2nc(Nc3ccc(N4CCN(CCCCCCC(=O)Nc5cccc6c5CN(C5CCC(=O)N(C)C5=O)C6=O)CC4)cc3)ncc2C(F)(F)F)c2ccccc21 (stereo not drawn) | – | – | – | Activity [4]: 97.7% |
| CCS(=O)(=O)n1cc(-c2nc(Nc3ccc(N4CCN(CCOCCOCC(=O)Nc5cccc6c5CN(C5CCC(=O)NC5=O)C6=O)CC4)cc3)ncc2C(F)(F)F)c2ccccc21 (stereo not drawn) | 34.7 | 25.3 | > 95 | – |
| O=C1CCC(N2C(=O)c3cccc(NCCOCCOCCOCCN4CCN(c5ccc(-c6ccc7c(c6)C(=O)N(C(C(=O)Nc6nccs6)c6ccccc6)C7)cn5)CC4)c3C2=O)C(=O)N1 (stereo not drawn) | – | – | – | DC50 [5]: 5.9 nM |
| CCS(=O)(=O)n1cc(-c2nc(Nc3ccc(N4CCN(C(=O)CCCCCCC(=O)Nc5cccc6c5CN(C5CCC(=O)NC5=O)C6=O)CC4)cc3)ncc2C(F)(F)F)c2ccccc21 (stereo not drawn) | 278 | 159 | 85.9 | – |
| COc1cc2ncnc(Nc3ccc(F)c(Cl)c3)c2cc1OCCCCCOCCOCCC(=O)N[C@H](C(=O)N1C[C@H](O)C[C@H]1C(=O)NCc1ccc(-c2scnc2C)cc1)C(C)(C)C | – | – | – | DC50 [6]: 39 nM |
| CCS(=O)(=O)n1cc(-c2nc(Nc3ccc(N4CCN(CCCCCCCCC(=O)Nc5cccc6c5CN(C5CCC(=O)NC5=O)C6=O)CC4)cc3)ncc2C(F)(F)F)c2ccccc21 (stereo not drawn) | 45.4 | 33.2 | > 95 | – |
| CCS(=O)(=O)n1cc(-c2nc(Nc3ccc(N4CCN(CCCCC(=O)Nc5cccc6c5CN(C5CCC(=O)NC5=O)C6=O)CC4)cc3)ncc2C(F)(F)F)c2ccccc21 (stereo not drawn) | – | 82.5 | – | – |
| C=CC(=O)Nc1cc(Nc2nccc(-c3cn(C)c4ccccc34)n2)c(OC)cc1N(C)CCN(C)C [OSIMERTINIB] | 2240 | – | – | – |
| CCS(=O)(=O)n1cc(-c2nc(Nc3ccc(N4CCN(CCCCCCCCCCC(=O)Nc5cccc6c5CN(C5CCC(=O)NC5=O)C6=O)CC4)cc3)ncc2C(F)(F)F)c2ccccc21 (stereo not drawn) | 161 | 281 | 77.3 | – |
| CCS(=O)(=O)n1cc(-c2nc(Nc3ccc(N4CCN(C(=O)CCCCCC(=O)Nc5cccc6c5CN(C5CCC(=O)NC5=O)C6=O)CC4)cc3)ncc2C(F)(F)F)c2ccccc21 (stereo not drawn) | 197 | 162 | 80.1 | – |
| COc1cc(N2CCC(N3CCN(C)CC3)CC2)ccc1Nc1ncc(Cl)c(Nc2ccccc2P(C)(C)=O)n1 [BRIGATINIB] | 562 | – | – | IC50 (PC-9): 110 nM; IC50 (A549): 911 nM; IC50 [7]: 404 nM; IC50 (NCI-H1975): 444 nM |
| CCS(=O)(=O)n1cc(-c2nc(Nc3ccc(N4CCN(C(=O)CCC(=O)Nc5cccc6c5CN(C5CCC(=O)NC5=O)C6=O)CC4)cc3)ncc2C(F)(F)F)c2ccccc21 (stereo not drawn) | 419 | 180 | 88.4 | – |
| CCS(=O)(=O)N1C=C(c2nc(Nc3ccc(N4CCN(CCCCC(=O)Nc5cccc6c5CN(C5CCC(=O)NC5=O)C6=O)CC4)cc3)ncc2C(F)(F)F)C2CC=CC=C21 (stereo not drawn) | 93.5 | – | > 95 | – |
| CCS(=O)(=O)n1cc(-c2nc(Nc3ccc(N4CCN(CCCCCCCC(=O)Nc5cccc6c5CN(C5CCC(=O)NC5=O)C6=O)CC4)cc3)ncc2C(F)(F)F)c2ccccc21 (stereo not drawn) | 34.2 | 17 | > 95 | – |
| CCS(=O)(=O)n1cc(-c2nc(Nc3ccc(N4CCN(CCCCCCCCCC(=O)Nc5cccc6c5CN(C5CCC(=O)NC5=O)C6=O)CC4)cc3)ncc2C(F)(F)F)c2ccccc21 (stereo not drawn) | 48.6 | 68.7 | 80.6 | – |
| CCS(=O)(=O)n1cc(-c2nc(Nc3ccc(N4CCN(CCCC(=O)Nc5cccc6c5CN(C5CCC(=O)NC5=O)C6=O)CC4)cc3)ncc2C(F)(F)F)c2ccccc21 (stereo not drawn) | 62.7 | 49.7 | > 95 | – |
| CCS(=O)(=O)n1cc(-c2nc(Nc3ccc(N4CCN(C(=O)CCCCC(=O)Nc5cccc6c5CN(C5CCC(=O)NC5=O)C6=O)CC4)cc3)ncc2C(F)(F)F)c2ccccc21 (stereo not drawn) | 188 | > 300 | 48.3 | – |
| CCS(=O)(=O)n1cc(-c2nc(Nc3ccc(N4CCNCC4)cc3)ncc2C(F)(F)F)c2ccccc21 | – | – | – | Activity [4]: 106%; Kd [8]: 47.9 nM |
| CCS(=O)(=O)n1cc(-c2nc(Nc3ccc(N4CCN(C(=O)CCCC(=O)Nc5cccc6c5CN(C5CCC(=O)NC5=O)C6=O)CC4)cc3)ncc2C(F)(F)F)c2ccccc21 (stereo not drawn) | 198 | 153 | 80.4 | – |
| CC(C)C[C@@H](C=O)NC(=O)[C@H](CC(C)C)NC(=O)[C@H](CC(C)C)NC(=O)OCc1ccccc1 | – | – | – | Activity [9]: 80.3% |
| CCS(=O)(=O)n1cc(-c2nc(Nc3ccc(N4CCN(CCCCCC(=O)Nc5cccc6c5CN(C5CCC(=O)NC5=O)C6=O)CC4)cc3)ncc2C(F)(F)F)c2ccccc21 (stereo not drawn) | 62.9 | 59.4 | 94.6 | – |
